In experiment [1] the test system is Trypanosoma cruzi amastigotes (Tulahuen strain expressing Lac-Z) cultured in 3T3 fibroblast cells. Description: microbe, parasite or virus in culture. The following applies: Trypanosoma cruzi, TULAHUEN, Fibroblast, T. cruzi amastigotes in 3T3 fibroblast cells, read-out: T cruzi EC50. Type of experiment: cell-based.
In experiment [2] the test system is Trypanosoma brucei Lister 427 strain, bloodstream form. Put plainly: Assay for proliferation of kinetoplastid parasite Trypanosoma brucei (Cell Titer Glo, 48 hours). Type of experiment: cell-based. Particulars: Trypanosoma brucei. Put shortly: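 Bloodstream-form T. brucei Lister 427 in HMI-9 medium was exposed to compound (DMSO vehicle) for 48 hours at 37° C, 5% CO2. Parasite growth was read as ATP by CellTiter-Glo luminescence, with EC50 calculated from percent inhibition.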

For experiment [3], the system named is Leishmania donovani axenic amastigote parasites. Description: Leishmania donovani axenic amastigote proliferation assay (Cell TiterGlo luminescence, 2 day incubation). It is filed as cell-based. The following applies: Leishmania donovani, read-out: L. donovani amastigotes EC50.
In experiment [4] the test system is L. donovani HU3 strain in mouse peritoneal macrophages. Description: Assay for proliferation of Leishmania parasites in infected mouse peritoneal macrophages (SybrGreen staining, high-content imaging, 5 days). Type of experiment: cell-based, Leishmania donovani. The following applies: Leishmania donovani, Peritoneal macrophage, L. donovani in mouse peritoneal macrophages, read-out: L. donovani Macrophage EC50.

Where [5] appears, read: T. brucei Lister 427 bloodstream form, inhibition of proliferation, read-out: T. brucei EC50.
Where [6] appears, read: axenic amastigotes, inhibition of proliferation.
Where [7] appears, read: T. brucei Lister 427 bloodstream form, read-out: T. brucei EC50.

Like-named read-outs stand apart in the source and are kept apart here.

As to `O=C(Nc1ccc(F)c(-c2cn3cc(C(F)(F)F)cnc3n2)c1)N1CCC1` [Compound 299], the EC50 in experiment [1] (inhibition of proliferation) was 45 nM; in experiment [2] (setting [5]), 0.034 µM; in experiment [3] (setting [6]), 92 nM; in experiment [4] (inhibition of proliferation), 178 nM.
In the case of `Cc1ccc(-c2cnc3nc(-c4cc(NC(=O)c5oc(C)nc5C)ccc4F)cn3c2)cn1` [Compound 441], the EC50 stood at 141 nM in experiment [1], 0.309 µM in experiment [2] (setting [7]), 97 nM in experiment [3] (L. donovani axenic amastigotes) and 912 nM in experiment [4].
`Cc1nc(C)c(C(=O)Nc2ccc(F)c(-c3cn4cc(-c5ccc(F)nc5)cnc4n3)c2)o1` [Compound 436]: the half-maximal effective concentration (EC50) in experiment [1] stood at 50 nM; in experiment [2] (setting [7]), 0.072 µM; in experiment [3] (L. donovani axenic amastigotes) it was 77 nM; in experiment [4], 1720 nM.
Regarding `Cc1nc(C)c(C(=O)Nc2ccc(F)c(-c3cn4cc(C#CCCN5CCN(C)CC5)cnc4n3)c2)o1` [Compound 546], the EC50 in experiment [1] was found to be 3850 nM; in experiment [2] (setting [7]), 3.18 µM; in experiment [3] (L. donovani axenic amastigotes) it was 5660 nM; in experiment [4], 30200 nM.
For `CCN(C)C(=O)Nc1ccc(F)c(-c2cn3cc(C4=CCOCC4)cnc3n2)c1` [Compound 328], the EC50 in experiment [1] (inhibition of proliferation) amounted to 302 nM; in experiment [2] (setting [5]), 0.167 µM; in experiment [3] (setting [6]), 387 nM; in experiment [4] (inhibition of proliferation), 1500 nM.
Take `O=C(Nc1ccc(F)c(-c2cn3cc(-c4cccnc4)cnc3n2)c1)N1CCC1` [Compound 405]: the EC50 was found to be 271 nM in experiment [1], 0.013 µM in experiment [2] (setting [7]), 94 nM in experiment [3] (L. donovani axenic amastigotes) and 361 nM in experiment [4].
The corresponding values for `Cc1nc(C)c(C(=O)Nc2ccc(F)c(-c3cn4cc(N(C)C(C)C)cnc4n3)c2)o1` [Compound 483] are 74 nM, 0.07 µM, 169 nM and 196 nM.
As to `O=C(Nc1ccc(F)c(-c2cn3cc(C4=CCCC4)cnc3n2)c1)N1CCCC1` [Compound 354], the EC50 in experiment [1] (inhibition of proliferation) was determined as 8 nM; in experiment [2] (setting [5]) it was 0.004 µM; in experiment [3] (setting [6]), 26 nM; in experiment [4] (inhibition of proliferation) it was 103 nM.
For `CC1(C(=O)Nc2cnc3nc(-c4cc(NC(=O)N5CCCC5)ccc4F)cn3c2)CCCCO1` (stereo not drawn) [Compound 136], the EC50 is greater than 20000 nM in experiment [1] (inhibition of proliferation), 0.157 µM in experiment [2] (setting [5]), 392 nM in experiment [3] (setting [6]) and 1420 nM in experiment [4] (inhibition of proliferation).
Consider `Cc1nc(C)c(C(=O)Nc2ccc(F)c(-c3cn4cc(Nc5ncccc5C(F)(F)F)cnc4n3)c2)o1` [Compound 488], for which the EC50 in experiment [1] came to 36 nM; in experiment [2] (setting [7]) it was 0.058 µM; in experiment [3] (L. donovani axenic amastigotes), 32 nM; in experiment [4], 132 nM.
As for `Cc1ncc(C(=O)Nc2ccc(F)c(-c3cn4cc(C(C)C)cnc4n3)c2)o1` [Compound 413], the EC50 in experiment [1] came out at 14 nM; in experiment [2] (setting [7]), 0.039 µM; in experiment [3] (L. donovani axenic amastigotes), 26 nM; in experiment [4], 54 nM.
Consider `Cc1cccc(-c2cnc3nc(-c4cc(NC(=O)c5oc(C)nc5C)ccc4F)cn3c2)n1` [Compound 376], for which the EC50 in experiment [1] was 96 nM; in experiment [2] (setting [7]), 0.158 µM; in experiment [3] (L. donovani axenic amastigotes) it was 85 nM; in experiment [4] it was 256 nM.
Regarding `CC(C)OC(=O)Nc1cnc2nc(-c3cc(Nc4nccc5ccoc45)ccc3F)cn2c1` [Compound 497], the EC50 in experiment [1] was 112 nM; in experiment [2] (setting [7]), 0.496 µM; in experiment [3] (L. donovani axenic amastigotes) it was 641 nM; in experiment [4], 1280 nM.
For `O=C(Nc1ccc(Cl)c(-c2cn3cc(-c4ccccn4)cnc3n2)c1)N1CCCC1` [Compound 456, N-(4-chloro-3-(6-(pyridin-2-yl)imidazo[1,2-a]pyrimidin-2-yl)phenyl)pyrrolidine-1-carboxamide], the EC50 was 40 nM in experiment [1], 0.054 µM in experiment [2] (read-out: T. brucei EC50 (μM)), 42 nM in experiment [3] (L. donovani axenic amastigotes) and 218 nM in experiment [4].
Regarding `Cc1nc(C)c(C(=O)Nc2ccc(F)c(-c3cn4cc(-c5c(C)noc5C)cnc4n3)c2)o1` [Compound 366], the EC50 in experiment [1] (inhibition of proliferation) was found to be 443 nM; in experiment [2] (setting [5]), 0.338 µM; in experiment [3] (setting [6]) it was 849 nM; in experiment [4] (inhibition of proliferation), 339 nM.
